{"source": "patent US10058419B2", "about": "“Oxidation resistant bioprosthetic tissues and preparation thereof” (The Children's Hospital of Philadelphia, priority 2011, dated 2018)", "tested_on": "ROS activity", "assay": "Dihydrorhodamine-123 (DHR123) fluorescence measure of oxidation due to ROS, with H2O2 as oxidant", "conditions": "DBP titrated in solution against H2O2 in the presence of DHR123 (FIG. 5)", "description": "The ability of DBP to inhibit ROS activity was verified both in solution and when bound to glut-pretreated pericardium, as described above, by monitoring the fluorescence of dihydrorhodamine-123 (DHR123; Molecular Probes Inc., Eugene Oreg.), which is a commonly used measure of oxidation due to ROS. Briefly, the capacity of DBP to reduce ROS activity was proven in this system by titrating DBP in solution against the oxidant hydrogen peroxide (H2O2) in the presence of DHR123."}
{"compound": "CC(C)(C)c1cc(CCCN)cc(C(C)(C)C)c1O.Cl", "note": "[DBP, 4-hydroxy-3,5-di-tert-butylphenylpropylamine hydrochloride]", "values": [{"measurement": "oxidation signal (DHR123 fluorescence)", "result": "dose-dependent inhibition of oxidation signal"}]}
